Patent publication US10093675B2, “6,8-disubstituted-9-(heterocyclyl)purines, compositions containing these derivatives and their use in cosmetic and medicinal applications” (USTAV EXPERIMENTALNI BOTANIKY AV CR, V.V.I., priority 2014, dated 2018)

Key:
[1] = tested on: excised wheat leaf tips (Triticum aestivum cv. Hereward); assay: Senescence inhibition on winter wheat leaf segments (retention of chlorophyll); format: in vivo; settings: 10^−4 mol/L; 96 hours in the dark; activity of kinetin set at 100%
Procedure: Seeds of winter wheat, Triticum aestivum cv. Hereward, were washed under running water for 24 hours and then sown on vermiculite soaked with Knop's solution. They were placed in the grown chamber at 25° C. with a 16/8 hours light period at […]. After 7 days, the first leaf was fully developed and the second leaf had started to grow. A tip section of the first leaf, approximately 35 mm long, was removed from 5 seedlings and trimmed slightly to a combined weight of 100 mg. The basal ends of the five leaf tips were placed in the wells of a microtiter polystyrene plate containing […] of a cytokinin solution each. The entire plate was inserted into a plastic box lined with paper tissues soaked in distilled water to prevent leaf sections from drying out. After 96 hours incubation in the dark at 25° C., the leaves were removed and chlorophyll extracted by heating at 80 C for 10 min in 5 ml of 80% ethanol (v/v). The sample volume was then restored to 5 ml by the addition of 80% ethanol (v/v). The absorbance of the extract was recorded at 665 nm. In addition, chlorophyll extracts from fresh leaves and leaf tips incubated in deionized water were measured. From the obtained data, the concentration with highest activity was selected for each compound tested. Relative activity of the compound at this concentration was calculated (see Table 6 below). The activity obtained for 10^−4 M kinetin (Kin) was set as 100%. The values shown are means of five replicates and the whole experiment was repeated twice.
The compounds to be tested were dissolved in dimethylsulfoxide (DMSO) and the solution brought up to 10^−3 M with distilled water. […] As summarized in Table 6 below, the presence of C-8 substitutent was beneficial and led to increase of antisenescent properties.

[2] = tested on: Salmonella typhimurium histidien auxotrophs TA98 and TA100; assay: Ames test; format: cell-based; settings: 2.5 to 5000 μg/plate; presence and absence of Aroclor-induced rat liver S9
Procedure: A number of tests related to the safety of have been carried out using conventionally accepted protocols and procedures. The results of these studies are summarized herein. Tests were carried out using DMSO as solvent and dose levels of compound 21, 24, 26, 27, 39, 41, 45, 48, 50, 52, 53, 54, 55, 56, 63, 64, 66, 67, 68, 69, 70, 71, 72, 74, 76, 124, 125, 126, 127, 128, 129, 130, 145, 146, 147, 149, 150, 151, 208, 216, 218 a 243 at 2.5, 5.0, 15, 50, 500, 1500, and 5000 μg/plate based upon standard protocol and procedures (Ames et al., Mutation Research, 31, 347-364 (1975); Maron et al., Mutation Research, 113, 173-215 (1983)).

[3] = tested on: human diploid fibroblasts (HDF cells; HDF25, HDF45, HDF80); assay: Inhibition of human cell aging: senescent cells by beta-galactosidase staining; format: cell-based; settings: for SENESCENT CELLS (%) HDF25: human diploid fibroblasts passage 25, beta-galactosidase staining; for SENESCENT CELLS (%) HDF45: human diploid fibroblasts passage 45, beta-galactosidase staining; for SENESCENT CELLS (%) HDF80: human diploid fibroblasts passage 80, beta-galactosidase staining
Procedure: In this example, human diploid fibroblasts (HDF cells of various passage levels: passage 25—designated HDF25; passage 45—designated HDF45; passage 80—designated HDF80) were stained for beta-galactosidase activity. The medium used for the cell cultivation was removed the cells were washed twice in […], and fixed in 2-3 ml of fixing solution comprised of a 2% formaldehyde and 0.2% glutaraldehyde in PBS. The cells were incubated at room temperature for 5 minutes, and then washed twice with PBS. The cells were subsequently incubated at 37° C. […] In this experiment, senescent cells, but no other cells were stained blue due to the action of beta-galactosidase on the substrate.

| SMILES | Activity (%) (s.d.), retention of chlorophyll [1] | mutagenic response [2] | SENESCENT CELLS (%) HDF25 [3] | SENESCENT CELLS (%) HDF45 [3] | SENESCENT CELLS (%) HDF80 [3] |
| --- | --- | --- | --- | --- | --- |
| Fc1ccc(CNc2ncnc3c2nc(Cl)n3C2CCCCO2)cc1F (centres unmarked) [Compound 11] | 127 (±5) % | – | – | – | – |
| COc1ccc(CNc2ncnc3c2nc(Cl)n3C2CCCCO2)cc1OC (centres unmarked) [Compound 12] | 140 (±7) % | – | – | – | – |
| COc1ccc(CNc2ncnc3c2nc(Br)n3C2CCCCO2)cc1OC (centres unmarked) [Compound 41] | 133 (±7) % | no positive mutagenic responses | 2% | 6% | 21% |
| Ic1nc2c(NCc3ccco3)ncnc2n1C1CCCCO1 (centres unmarked) [Compound 45, 8-Iodo-6-furfurylamino-9-(tetrahydropyran-2-yl)-9H-purine] | 112 (±4) % | no positive mutagenic responses | 3% | 5% | 20% |
| C/C(=C\CNc1ncnc2c1nc(I)n2C1CCCCO1)CO (centres unmarked) [Compound 48] | 120 (±4) % | no positive mutagenic responses | 2% | 4% | 21% |
| Fc1cccc(CNc2ncnc3c2nc(I)n3C2CCCCO2)c1 (centres unmarked) [Compound 50] | 121 (±4) % | no positive mutagenic responses | 3% | 4% | 19% |
| COc1cccc(CNc2ncnc3c2nc(I)n3C2CCCCO2)c1 (centres unmarked) [Compound 52] | 120 (±3) % | no positive mutagenic responses | 2% | 6% | 21% |
| Oc1cccc(CNc2ncnc3c2nc(I)n3C2CCCCO2)c1 (centres unmarked) [Compound 53] | 125 (±6) % | no positive mutagenic responses | 2% | 5% | 21% |
| Oc1ccc(CNc2ncnc3c2nc(I)n3C2CCCCO2)cc1O (centres unmarked) [Compound 54] | 138 (±7) % | no positive mutagenic responses | 3% | 5% | 20% |
| Fc1ccc(CNc2ncnc3c2nc(I)n3C2CCCCO2)cc1F (centres unmarked) [Compound 55] | 133 (±5) % | no positive mutagenic responses | 3% | 4% | 18% |
| COc1ccc(CNc2ncnc3c2nc(I)n3C2CCCCO2)cc1OC (centres unmarked) [Compound 56] | 141 (±8) % | no positive mutagenic responses | 3% | 5% | 21% |
